The text below walks through data of the NIST ThermoML archive (doi:10.1016/j.tca.2016.10.016).

Values joined by “and” are separate entries in the source; they are usually repeats but may differ in a detail not shown here. Equal values may be shown once. Numbers after ± are expanded uncertainties.

The nature of data set [1]: Molar enthalpy of transition or fusion. The following applies: Crystal; DSC.
For data set [2] the following is noted: Crystal; DTA.

`O.O.O=C(O)C(=O)O` [ethanedioic acid dihydrate]: the “Molar enthalpy of transition or fusion” value in data set [1] was 47.3 kJ/mol and 47 kJ/mol. The Normal melting temperature in data set [2] is 99.60 ± 0.7 °C and 101.20 ± 0.7 °C.
